Reference: patent US4206215A, “Antimicrobial bis-[4-(substituted-amino)-1-pyridinium]alkanes” (Sterling Drug Inc., priority 1977, dated 1980)
Where two headings read alike, the source gives them in different places.

What was measured:
[1] = test system: young adult male Swiss-Webster strain albino mice; assay: Acute oral toxicity (ALD50); type: in vivo
Description: (§1) The acute oral toxicity (ALD50) of several representative examples was determined as follows: Groups of 3 young adult male Swiss-Webster strain albino mice were fasted approximately 4 hours before medication and then medicated once orally by stomach tube.

[2] = Acute oral toxicity (ALD50); type: in vivo; details: mouse, in vivo, po, mice, read-out: 7-Day ALD50
Description: as §1

E. coli 100/B22 = assay: In vitro antibacterial activity, MIC (modified Autotiter method); type: cell-based, Escherichia coli; details: for MIC E. coli 100/B22: 18-20 hours at 37° C.; for MIC: Escherichia coli, 100/B22, 20 h, read-out: MIC E. coli 100/B22, 18-20 hours at 37° C.
Summary of the method: (§2)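 Compounds are diluted serially by twofold steps in sterile water using the Autotiter, beginning with a 1,000 mcg./ml. solution; addition of inoculated double-strength semisynthetic medium with glucose yields final concentrations between 500 and 0.06 mcg./ml.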

E. coli AB1932-1 = assay: as above; type: cell-based, Escherichia coli; details: 18-20 hours at 37° C.; for MIC: Escherichia coli, AB19321, 20 h, read-out: MIC E. coli AB1932-1
Summary of the method: as §2

P. mirab. MGH-1 = assay: as above; type: cell-based, Proteus mirabilis; details: 18-20 hours at 37° C.; for MIC: Proteus mirabilis, 20 h, read-out: MIC P. mirab. MGH-1
Summary of the method: as §2

K. pneum. 39645 = assay: as above; type: cell-based, Klebsiella pneumoniae; details: Klebsiella pneumoniae, 20 h, 18-20 hours at 37° C.; read-out: MIC K. pneum. 39645
Summary of the method: as §2

Ps. aerug. MGH-2 = assay: as above; type: cell-based, Pseudomonas aeruginosa; details: Pseudomonas aeruginosa, 20 h, 18-20 hours at 37° C.; read-out: MIC Ps. aerug. MGH-2
Summary of the method: as §2

[3] = test system: Streptococcus mutans OMZ-61; assay: Dental plaque-preventive effectiveness in the presence of sterile human saliva (50%); type: cell-based; details: for Dental Plaque Preventive Activity in 50% saliva Minimum Effective Conc. (%): 50% sterile human saliva
Description: The dental plaque preventive activity of certain of the compounds of the present invention was determined by measuring the ability of these compounds to inhibit the production of dental plaque by Streptococcus mutans OMZ-61 as follows:
A culture medium for the plaque-producing Streptococcus mutans OMZ-61 containing 1.5 g. of BBL beef extract, 5 g. of sodium chloride, 10 g. of dehydrated trypticase, 5 g. of sucrose and sufficient distilled water to give a total volume of 1000 ml. is adjusted to pH 7.0 and sterilized by membrane filtration. The medium is dispensed aseptically in 10-ml. aliquots into 150×16 mm. test tubes and stored at refrigeration temperature until used.
Two concentrations of the compound to be tested are prepared by dissolving 100 mg. of the compound in 1 ml. of distilled water with the aid of sufficient 0.1 N sodium hydroxide, 10% dimethylsulfoxide or 10% N,N-dimethylformamide and diluting the resulting solution to 10 ml. with distilled water. This 1.0% solution and a 1:10 dilution in distilled water (0.1%) are sterilized by membrane filtration before use.
A sterile piece of plaque-free natural tooth enamel or synthetic hydroxylapatite is suspended in each concentration of compound for two 1-minute periods, each followed by a 1-minute air drying period. Each piece is then suspended and agitated for 5 minutes in individual test tubes containing sterile distilled water (rinse). They are then suspended in 10 ml. of liquid beef extract medium to which has been added 0.3 ml. of a 24-hr. anaerobic culture of Streptococcus mutans. The tubes containing the "treated" hydroxylapatite and the Streptococcus mutans are then incubated anaerobically at 37° C. for 24 hours. The same process of two 1-minute soaks in the solution of compound, each followed by 1 minute of air drying and the final 5-minute rinse is repeated before once again suspending the hydroxylapatite in a fresh tube containing 10 ml. of beef extract medium and 0.3 ml. of inoculum. At the end of the second 24-hour period, each piece of hydroxylapatite is rinsed for 1 minute in 3 successive tubes of distilled water. These are then suspended for 1 minute in a solution of F, D & C Red No. 3 dye. This staining procedure is used in order to identify more easily the development of plaque after the 48-hour period of exposure to the plaque-producing organism. The staining period is followed by another 10-second rinse to remove excess dye. Any plaque formation stains a brilliant pink. […] Active compounds are tested at successively lower doses in order to determine the minimum effective concentration. On some occasions, the interference of plaque production is caused by the inhibition of growth of the organism in the culture medium because the compound has been leached from the hydroxylapatite to produce an antibacterial level in the medium. When this occurs, the compound is tested at lower concentrations until the growth of the organism in the surrounding medium is equal to that in the nonmedicated control culture. Plaque may or may not be formed at these lower concentrations.
Dental plaque-preventive effectiveness in the presence of sterile human saliva (50%) was determined for representative examples.

S. pyogen. C203 = assay: In vitro antibacterial activity, MIC (modified Autotiter method); type: cell-based, Streptococcus pyogenes; details: 18-20 hours at 37° C.; for MIC: Streptococcus pyogenes, 20 h, read-out: MIC S. pyogen. C203
Summary of the method: as §2

T. menta. 9129 = assay: In vitro antifungal activity, MIC (modified Autotiter method); type: cell-based, Trichophyton mentagrophytes; details: 18-20 hours at 37° C.; for MIC: Trichophyton mentagrophytes, 20 h, read-out: MIC T. menta. 9129
Summary of the method: as §2

[4] = test system: Herpes simplex type 2 virus; assay: Virucidal activity in vitro (plaque inhibition test); type: cell-based; details: 2 mg. of test compound on growth medium
Description: Virucidal activity of representative examples against Herpes simplex type 2 virus was determined in vitro employing a procedure similar to the plaque inhibition test for detection of specific inhibitors of DNA-containing viruses published by E. C. Herrmann, Jr., Proc. Soc. Exp. Biol. Med. 107, 142 (1961) wherein 2 mg. of the test compound was placed on the surface of the growth medium.

[5] = 125 mg/kg oral, aqueous solution
[6] = 125 mg/kg oral, suspension in 1% G.T.
[7] = 250 mg/kg oral, aqueous solution
[8] = 250 mg/kg oral, suspension in 1% G.T.
[9] = 500 mg/kg oral, aqueous solution
[10] = 500 mg/kg oral, suspension in 1% G.T.
[11] = 1000 mg/kg oral, suspension in 1% G.T.
[12] = suspension in 1% gum tragacanth

Row | Structure (SMILES) | Mortality 7 Days [1, 6] | Mortality 24 Hrs [1, 6] | Mortality 7 Days [1, 8] | Mortality 24 Hrs [1, 8] | Mortality 7 Days [1, 10] | Mortality 24 Hrs [1, 10] | Mortality 7 Days [1, 11] | Mortality 24 Hrs [1, 11] | LD50 at 168 h [2, 12] [mg/kg] | MIC E. coli 100/B22 (E. coli 100/B22) [µg/mL] | MIC E. coli AB1932-1 (E. coli AB1932-1) [µg/mL] | MIC (P. mirab. MGH-1) [µg/mL] | MIC (K. pneum. 39645) [µg/mL] | MIC (Ps. aerug. MGH-2) [µg/mL] | Dental Plaque Preventive Activity in 50% saliva Minimum Effective Conc. (%) [3] | Virucidal activity against Herpes simplex type 2 virus [4] | MIC (E. coli 100/B22) [µg/mL] | MIC (E. coli AB1932-1) [µg/mL] | MIC (S. pyogen. C203) [µg/mL] | MIC (T. menta. 9129) [µg/mL] | also measured
1 | CCCCCCCNc1cc[n+](CCCCCCCCCCCC[n+]2ccc(NCCCCCCC)cc2)cc1 [Example 3, 1,12-bis-[4-(heptylamino)-1-pyridinium]dodecane dibromide] | 0/3 | 0/3 | 0/3 | 0/3 | 1/3 | 0/3 | 1/3 | 1/3 | 1000 | 3.13 | 6.25 | 3.13 | 3.13 | 6.25 | 0.1% | active | – | – | – | – | Mortality 7 Days [1, 5]: 0/3; Mortality 24 Hrs [1, 5]: 0/3; Mortality 7 Days [1, 7]: 1/3; Mortality 24 Hrs [1, 7]: 1/3; Mortality 7 Days [1, 9]: 3/3; Mortality 24 Hrs [1, 9]: 2/3; LD50 at 168 h ([2]; aqueous solution): 315 mg/kg; MIC S. pyogen. C203 (S. pyogen. C203): 0.39 µg/mL; MIC T. menta. 9129 (T. menta. 9129): 1.56 µg/mL
2 | CCCCCCNc1cc[n+](CCCCCCCCCCCCCC[n+]2ccc(NCCCCCC)cc2)cc1 [Example 5C, 1,14-bis-[4-(hexylamino)-1-pyridinium]tetradecane dibromide] | 0/3 | 0/3 | 0/3 | 0/3 | 0/3 | 0/3 | 1/3 | 1/3 | > 1000 | – | – | – | 0.76 | 6 | 0.05% | active | 0.76 | 0.76 | 1 | 0.76 | MIC P. mirab. MGH-1 (P. mirab. MGH-1; listed as SC): 1.5 µg/mL; Plaque formation in 50% saliva plaque test (footnote 1) ([3]; 0.005%, 50% saliva): plaque formed; Bacterial growth in 50% saliva plaque test (footnote 1) ([3]; 0.05% concentration, 50% saliva): No bacterial growth
3 | CCCCCCCCNc1cc[n+](CCCCCCCC[n+]2ccc(NCCCCCCCC)cc2)cc1 [Example 11, 1,8-bis-[4-(octylamino)-1-pyridinium]octane dibromide] | 0/3 | 0/3 | 0/3 | 0/3 | 1/3 | 0/3 | 0/3 | 0/3 | > 1000 | 1.95 | – | 7.8 | 1.95 | 15.6 | 0.05% | active | – | 1 | 1 | 0.5 | –
4 | CCCCCCCNc1cc[n+](CCCCCCCCC[n+]2ccc(NCCCCCCC)cc2)cc1 [Example 24, 1,9-bis-[4-(heptylamino)-1-pyridinium]nonane dibromide] | 0/3 | 0/3 | 0/3 | 0/3 | 1/3 | 0/3 | 0/3 | 0/3 | > 1000 | – | – | – | 1.95 | 62.5 | Ca. 0.005% | active | 1.95 | 1 | 0.5 | 0.5 | MIC P. mirab. MGH-1 (P. mirab. MGH-1): 15.6 µg/mL
5 | CCCCC(CC)CNc1cc[n+](CCCCCCCCCC[n+]2ccc(NCC(CC)CCCC)cc2)cc1 (stereo not drawn) [Example 58, 1,10-bis-[4-(2-ethylhexylamino)-1-pyridinium]decane dibromide] | 0/3 | 0/3 | 0/3 | 0/3 | 0/3 | 0/3 | 0/3 | 0/3 | > 1000 | – | 0.37 | 12.1 | 3 | 48.4 | Ca. 0.005% | active | 0.76 | – | 1.95 | 0.76 | –
